In the supplement of paper PMC10627819:

Columns and labels:
B. subtilis 168 [1] = test: fitness (endpoint OD595 vs no drug) (fraction); higher = more growth
Procedure, shortened: (§1)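 Fitness was defined as the optical density at the transition into stationary phase relative to the robust mean of no-drug control wells. Values were capped at 1. Cultures were started at OD595 0.01 in 384-well plates (30 µl, or 55 µl for S. pneumoniae) in TSB, LB Lennox or CY at 37 °C. OD595 was recorded every 30 min over 14 h, with the first reading subtracted as background.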

S. aureus DSM 20231 [2] = test: as above
Procedure, shortened: as §1

S. aureus Newman [3] = test: as above
Procedure, shortened: as §1

S. pneumoniae D39V [4] = test: as above
Procedure, shortened: as §1

B. subtilis 168 [5] = test: Bliss interaction score (quartile over a dose matrix) (fitness difference); higher = more antagonism (negative = synergy)
Procedure, shortened: (§2)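 OD595 was read at entry into stationary phase and expressed relative to the robust mean of the no-drug wells on the same plate, capped at 1. The resulting ratio is the fitness value. The Bliss score, observed fitness minus product-based expected fitness with single-drug fitness inferred from combinations, is summarised by quartiles over technical, biological and donor/recipient replicates.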

S. aureus DSM 20231 [6] = test: as above
Procedure, shortened: as §2

S. aureus Newman [7] = test: as above
Procedure, shortened: as §2

S. pneumoniae D39V [8] = test: as above
Procedure, shortened: as §2
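Throughout, for Bliss interaction score (quartile over a dose matrix): first quartile when negative (synergy) and third quartile when positive (antagonism).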

CO/N=C(\C(=O)N[C@@H]1C(=O)N2C(C(=O)O)=C(COC(C)=O)CS[C@H]12)c1csc(N)n1 [Cefotaxime] + Cc1cc(NS(=O)(=O)c2ccc(N)cc2)no1 [Sulfamethoxazol]
fitness, one replicate
Settings	partner 0.5 µg/mL	partner 1 µg/mL	partner 2 µg/mL	partner 4 µg/mL	partner 8 µg/mL
B. subtilis 168 [1], first compound 0.00775 µg/mL	–	0.802	0.77	0.757	–
B. subtilis 168 [1], first compound 0.0155 µg/mL	–	0.719	0.638	0.6	–
B. subtilis 168 [1], first compound 0.031 µg/mL	–	0.552	0.513	0.475	–
B. subtilis 168 [1], first compound 0.0625 µg/mL	0.664	0.494	0.438	–	–
B. subtilis 168 [1], first compound 0.125 µg/mL	0.395	0.402	0.275	–	–
B. subtilis 168 [1], first compound 0.25 µg/mL	0.325	0.0239	0.201	–	–
S. aureus DSM 20231 [2], first compound 0.039 µg/mL	–	0.724	0.758	0.714	–
S. aureus Newman [3], first compound 0.039 µg/mL	–	0.86	–	–	0.922
S. aureus Newman [3], first compound 0.078 µg/mL	–	–	–	–	0.877
S. aureus Newman [3], first compound 0.156 µg/mL	–	–	–	–	0.823
S. aureus Newman [3], first compound 0.312 µg/mL	–	–	–	–	0.588
S. aureus Newman [3], first compound 0.625 µg/mL	–	0.0508	0.0123	0.0053	–
S. aureus Newman [3], first compound 1.25 µg/mL	–	0.0193	0.0269	0.0043	–
S. aureus Newman [3], first compound 2.5 µg/mL	–	0.0252	0.0046	0.0076	–

fitness
Settings	partner 1 µg/mL	partner 2 µg/mL	partner 4 µg/mL
B. subtilis 168 [1], first compound 0.5 µg/mL	0.221	0.187	0.211
B. subtilis 168 [1], first compound 1 µg/mL	0.115	0.0739	0.0877
B. subtilis 168 [1], first compound 2 µg/mL	0.11	0.0944	0.0802
S. aureus DSM 20231 [2], first compound 0.078 µg/mL	0.737	0.735	0.74
S. aureus DSM 20231 [2], first compound 0.156 µg/mL	0.681	0.686	0.687
S. aureus DSM 20231 [2], first compound 0.312 µg/mL	0.619	0.605	0.631
S. aureus Newman [3], first compound 0.039 µg/mL	–	0.944	0.886
S. aureus Newman [3], first compound 0.078 µg/mL	0.776	0.821	0.833
S. aureus Newman [3], first compound 0.156 µg/mL	0.687	0.752	0.748
S. aureus Newman [3], first compound 0.312 µg/mL	0.408	0.535	0.547
S. pneumoniae D39V [4], first compound 0.0018 µg/mL	0.945	0.969	0.913
S. pneumoniae D39V [4], first compound 0.0035 µg/mL	0.984	0.955	0.943
S. pneumoniae D39V [4], first compound 0.007 µg/mL	0.894	0.91	0.888

Settings	Bliss interaction score
B. subtilis 168 [5]	0.054
S. aureus DSM 20231 [6]	0.046
S. aureus Newman [7]	0.0672
S. pneumoniae D39V [8]	0.0301
